# Measurements as given in patent US6635245B1, “Strain of bacillus for controlling plant diseases” (priority 1999, dated 2003).
# Read-outs that look alike come from different tables or passages of the source.
# What was measured:
# Assay type in all cases: in vivo
# [1] = tested on: Peronospora parasitica; assay: Plant test, downy mildew of Brassica; conditions: Brassica seedlings, 0 to 5 scale
# [2] = tested on: Bremia lactucae; assay: Plant test, downy mildew of lettuce (chemically-resistant strain); conditions: lettuce seedlings, 0 to 5 scale
# [3] = tested on: Botrytis cinerea; assay: B-30087 and B-21661 whole broths alone and together, gray mold on pepper; conditions: 20 ppm, 0 to 5 scale
# Procedure: A strain of B. pumilus, NRRL B-30087 was tested with B. subtilis, NRRL B-21661, to determine if the fungicidal effect was greater if used together, than if each strain were used alone. Each strain was grown in a 10 liter or 5,000 liter fermenter, in a soy flour-based medium for approximately 50 hours. Each strain was tested as a whole broth culture against Botrytis cinerea gray mold on pepper, and Peronospora parasitica downy mildew on Brassica. The whole broths were tested at 1X, 1/2X and 1/8X. The two strains were then tested in various combinations with each other at 1/2X, 1/4X and 1/8X. A water check (control) and a chemical fungicide (BREAK® at 20 ppm) were also tested for comparison.
# [4] = tested on: Uromyces phaseoli; assay: Plant test, bean rust on snap bean; conditions: snap bean seedlings; 40 ppm; 0 to 5 scale
# [5] = tested on: Phytophthora infestans; conditions: tomato seedlings, 0-5 scale
# [6] = tested on: Uncinula necator; assay: Plant test, grape powdery mildew; conditions: grape seedlings (Chardonnay); 25 ppm; 0 to 5 scale
# Procedure: Grape seedlings (Chardonnay) were grown in two inch pots until the 6-9 true leaf stage. The culture of powdery mildew was maintained on grape seedlings at 22-26° C. under a 14 hour photoperiod. All but the youngest 2-4 leaves are removed. The NRRL Accession No. B-30087, the chemical fungicide (Rally®, myclobutanil at 25 ppm) and the water check are applied to runoff as above for the other pathogens tested. Four to five replications are used for each treatment. To inoculate with powdery mildew, leaves with mildew on maintenance seedlings are removed with scissors and each plant is inoculated individually. The surface of the maintenance seedling is gently brushed with a paintbrush so that spores are deposited onto the upper surface of the test plants. The procedure is performed using a 3× lighted magnification lens to assure all plants are getting equivalent inoculum. Flats with pots are placed in the dark for 16-24 hours at 20-24° C. Flats are kept at 22-26° C. with a 14 hour photoperiod for an additional 9-11 days until the test is read. […] The result using NRRL Accession No. B-30087 is shown below in Table 5.
smiles,measurement,setting,value
"CCO[PH](=O)O [Aliette, fosetyl-al]",Score Rep 1,[1]; 240 ppm,5.0
same,Score Rep 2,[1]; 240 ppm,3.0
same,Score Rep 1,[2]; 240 ppm,5.0
same,Score Rep 2,[2]; 240 ppm,3.0
"CCCC1COC(Cn2cncn2)(c2ccc(Cl)cc2Cl)O1 (stereo not drawn) [Break ®, propiconazole]",Botrytis cinerea Average disease rating (4 plants),[3],0.2
same,Score Rep 1,[4],0.0
same,Score Rep 2,[4],0.0
same,Score Rep 3,[4],0.5
"CO/C=C(/C(=O)OC)c1ccccc1Oc1cc(Oc2ccccc2C#N)ncn1 [Quadris, azoxystrobin]",Score Rep 1,[5]; 62.5 ppm,0.0
same,Score Rep 2,[5]; 62.5 ppm,0.5
same,Score Rep 3,[5]; 62.5 ppm,0.0
same,Score Rep 4,[5]; 62.5 ppm,0.5
same,Score Rep 5,[5]; 62.5 ppm,0.0
same,Score Rep 1,[5]; 125 ppm,0.0
same,Score Rep 2,[5]; 125 ppm,0.0
same,Score Rep 3,[5]; 125 ppm,0.0
same,Score Rep 4,[5]; 125 ppm,0.0
same,Score Rep 5,[5]; 125 ppm,0.0
"CCCCC(C#N)(Cn1cncn1)c1ccc(Cl)cc1 (stereo not drawn) [Rally, myclobutanil]",Score Rep 1,[6],0.0
same,Score Rep 2,[6],0.0
same,Score Rep 3,[6],0.0
same,Score Rep 4,[6],0.0
"COCC(=O)N(c1c(C)cccc1C)C(C)C(=O)OC (stereo not drawn) [Ridomil, metalaxyl]",Score Rep 1,[1]; 125 ppm,4.0
same,Score Rep 2,[1]; 125 ppm,4.0
same,Score Rep 3,[1]; 125 ppm,4.0
same,Score Rep 1,[2]; 125 ppm,3.0
same,Score Rep 2,[2]; 125 ppm,3.0
